{"source": "patent US20250136601A1", "about": "(priority 2022, published 2025)", "key": {"[1]": {"biological_target": "T1, 5-HT2A receptor (Homo sapiens (Human), UniProt P28223)", "T1 sequence (P28223 whole entry)": "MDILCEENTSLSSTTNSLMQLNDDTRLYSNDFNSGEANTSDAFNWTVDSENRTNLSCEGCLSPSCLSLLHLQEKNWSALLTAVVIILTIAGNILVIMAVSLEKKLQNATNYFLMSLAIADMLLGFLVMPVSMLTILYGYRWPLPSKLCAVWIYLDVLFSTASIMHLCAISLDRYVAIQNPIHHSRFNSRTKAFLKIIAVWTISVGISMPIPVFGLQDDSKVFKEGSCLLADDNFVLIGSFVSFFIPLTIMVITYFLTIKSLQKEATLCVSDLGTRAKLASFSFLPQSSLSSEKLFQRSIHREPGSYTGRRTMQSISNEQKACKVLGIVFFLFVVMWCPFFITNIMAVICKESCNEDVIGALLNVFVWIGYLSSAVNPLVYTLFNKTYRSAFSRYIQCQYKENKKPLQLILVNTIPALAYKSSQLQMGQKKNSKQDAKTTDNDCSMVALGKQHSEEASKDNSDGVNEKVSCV", "experiment": "radioligand competitive binding assay, [3H]-LSD, 293T membranes"}, "[2]": {"biological_target": "T1, 5-HT2A receptor", "experiment": "cell-based", "type": "cell-based", "conditions": "for Emax: HEK-293T, read-out: β-arrestin2 signaling agonistic activity (percentage in parentheses); for pathway selectivity: β-arrestin2 recruitment versus G protein signaling: without activating the G protein signaling pathway; for Gq signaling agonistic activity (percentage in parentheses): value in parentheses", "experimental": "On the second day, the confluent cells from a 6 cm culture dish were digested and reseeded into a 96-well plate at a volume of 100 μL of culture medium per well. On the third day, the drugs were added for testing. The 96-well plate was taken out from the cell incubator to decant the culture medium. 40 μL of the substrate coelenterazine 400a (final concentration 5 μM) was added to each well, and then 20 μL of different drugs were added sequentially from left to right, ensuring that the final concentration of the drug decreased gradually from bottom to top, with two replicates per treatment. Finally, the prepared samples were loaded on a plate reader for signal quantification. The readout values reflected the recruitment of β-arrestin2 to the membrane or the dissociation of G protein trimer. The former indicated the degree of activation of the downstream β-arrestin2 signaling pathway mediated by the 5-HT2A receptor, and the latter indicated the degree of activation of the downstream G protein signaling pathway mediated by the 5-HT2A receptor."}, "[3]": {"biological_target": "dopamine D2 receptor (Homo sapiens (Human), UniProt P14416)", "sequence (P14416 whole entry, species assumed)": "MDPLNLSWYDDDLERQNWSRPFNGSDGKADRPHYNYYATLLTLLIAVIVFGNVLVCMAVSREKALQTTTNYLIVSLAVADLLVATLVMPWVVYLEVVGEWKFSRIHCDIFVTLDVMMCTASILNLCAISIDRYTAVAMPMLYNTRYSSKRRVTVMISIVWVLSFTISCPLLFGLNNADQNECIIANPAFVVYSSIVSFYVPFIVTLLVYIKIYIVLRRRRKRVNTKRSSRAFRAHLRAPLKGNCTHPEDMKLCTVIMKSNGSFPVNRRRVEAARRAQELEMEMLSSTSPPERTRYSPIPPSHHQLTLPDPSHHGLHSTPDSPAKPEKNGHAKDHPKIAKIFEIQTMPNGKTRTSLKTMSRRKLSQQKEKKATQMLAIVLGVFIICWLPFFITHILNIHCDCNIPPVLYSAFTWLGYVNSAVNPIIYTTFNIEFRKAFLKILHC", "experiment": "radioligand competitive binding assay, [3H]-Methylspiperone, 293T membranes", "conditions": "affinity for the dopamine D2 receptor", "description": "Method: The affinity of the compounds of the present disclosure for the dopamine D2 receptor was determined using a radioligand competitive binding assay as follows. In the first step, a cell membrane component containing dopamine D2 receptor was prepared. […] 48 hours post-transfection, the 10 cm culture dish was taken out from the cell incubator and the cultured cells had expressed the dopamine D2 receptor. The culture medium was aspirated using a vacuum pump, and 3 mL of lysis buffer was added to each culture dish. The cells were then placed in a cold room at 4° C. for 10 minutes. After the cells were detached, they were transferred to a 15 mL centrifuge tube and centrifuged at 1500 rpm for 5 minutes at 4° C., and the supernatant was discarded. The cell pellet was transferred to a tissue homogenizer, and 3 mL of lysis buffer was added. Sufficient grinding was applied to break the cells. The cell suspension was then equally aliquoted into several Eppendorf tubes and centrifuged at 12000 rpm for 5 minutes at 4° C., and the supernatant was discarded. The resulting precipitate was the cell membrane component containing the dopamine D2 receptor. […] The machine readout value reflected the amount of [3H]-Methylspiperone bound on the membrane, and after further data processing, the affinity Ki values of different compounds for the dopamine D2 receptor were obtained."}, "[4]": {"experiment": "in vivo", "conditions": "male, C57, mouse, ip, 10 mg/kg; for MRT / half-life / Tmax: 10 mg/kg IP, mice", "description": "(§1) The concentration of the compound in mouse plasma was determined using LC-MS/MS, and the relevant pharmacokinetic parameters were calculated to investigate the pharmacokinetic characteristics of the compound in mice.\n(§2) Experimental design: 60 male C57 mice (purchased from Suzhou JOINN Laboratory Animal Co., Ltd.) were randomly divided into groups based on weight, with 3 mice per group. The mice were fasted with water ad libitum for 12 to 14 hours one day before test-article administration and fed 4 hours after the administration. The route of administration was intraperitoneal (IP), with a dosing concentration of 1 mg/mL, and a solvent formulation of 10% DMSO+90% saline.\n(§3) Sample collection: 0.1 mL of blood was collected from the orbit under isoflurane anesthesia before and after test-article administration, transferred to EDTA K2 tubes, and placed on an ice bath. The samples were centrifuged at 5000 rpm for 10 minutes at 4° C., and the plasma was collected. […] Prior to analysis, all plasma samples were stored at −80° C.\n(§4) Data processing: Drug concentrations in plasma and brain tissues were measured using LC-MS (API4000QTRAP triple quadrupole tandem mass spectrometer, equipped with an electrospray ionization source (ESI)). The data collection and control system software utilized was Analyst 1.5.1 (Applied Biosystems). The sample peak integration in the spectrum was conducted automatically; the ratio of the sample peak area to the internal standard peak area was used as an indicator to perform regression with the concentration of the sample. Regression method: Linear regression with a weighting factor of 1/X^2. Pharmacokinetic parameters were analyzed using a non-compartmental model in WinNonlin Professional v6.3 (Pharsight, USA). Cmax is the measured maximum plasma concentration, the area under the plasma concentration-time curve (AUC(0→0)) was calculated by the trapezoidal method, and Tmax is the time to reach peak plasma concentration after administration. Experimental data are presented as “Mean±Standard Deviation” (Mean±SD, n≥3) or “Mean” (n=2)."}, "[5]": {"system": "head-twitch response in mice", "type": "in vivo, C57BL/6J mice", "conditions": "intraperitoneal, at all doses tested, first 30 minutes", "source_text": "Method: The head-twitch response in mice was detected via oscillatory signals to characterize hallucinogenic effects. Mice (strain C57BL/6J, purchased from Shanghai Lingchang Biotech Co., Ltd.) were anesthetized with 2% isoflurane. A small portion of the scalp was removed from the center of the dorsal cranium. A custom-made small neodymium magnet (4 mm×4 mm×2 mm) was attached to the center of the dorsal cranium using dental resin. The magnet N-S poles were kept parallel to the dorsoventral aspect of the implant. The mice were allowed to recover for 1 week before testing. To record precise head movements, the mice were placed in a glass beaker with a diameter of 12 cm, surrounded by 150 turns of #30 enameled copper wire. The output signal from the coil was recorded using a PowerLab/4SP instrument installed with LabChart V8.1.16 software. Coil voltage was amplified, low-pass filtered at 10 kHz to remove radio frequency interference, and sampled at 40 kHz. For the detection of head-twitch response in mice, LabChart data were processed with a digital band-pass filter at 40 to 200 Hz. The head-twitch response in mice was identified by searching for sinusoidal wavelets that met the following criteria: 1) containing more than two bipolar peaks; 2) amplitude exceeding background noise level; 3) duration less than 120 milliseconds. 1 hour prior to the test, the mice were transferred to the test room for acclimatization. Subsequently, the mice were placed in the beaker for 30 minutes, and baseline head-twitch response values were recorded. Immediately after baseline recording, the mice were injected intraperitoneally with the test compound, and head-twitch response values were recorded for 1 to 2 hours post-dose, depending on the compound used. Statistical values were taken from the first 30 minutes."}, "[6]": {"conditions": "for AUMC0-inf / AUMC0-t / Kel: 10 mg/kg IP, mice", "description": "as §1, §2, §3, §4"}, "[7]": {"conditions": "affinity for the 5-HT2A receptor, [3H]-LSD"}}, "note": "“And” between values parts separate entries of the source, which are not always exact repeats. Equal values may be shown once. Read-outs that look alike come from different tables or passages of the source."}
{"smiles": "COc1ccccc1CCCN1CC[C@@H]2[C@H](C1)c1cccc3c1N2CCCN3C", "note": "(single isomer, unassigned) [Compound I-15]", "values": [{"measurement": "Ki", "setting": "[1]", "value": "< 100", "unit": "nM"}, {"measurement": "EC50", "setting": "[2]", "value": 97.2, "unit": "nM"}, {"measurement": "Emax", "setting": "[2]", "value": 24.3, "unit": "%"}]}
{"smiles": "COc1ccccc1CCCN1CC[C@@H]2[C@H](C1)c1cccc3c1N2CCC3", "note": "(single isomer, unassigned) [Compound I-19]", "values": [{"measurement": "Ki", "setting": "[1]", "value": "< 100", "unit": "nM"}, {"measurement": "Ki", "setting": "[1]; [7]", "value": 18, "unit": "nM"}, {"measurement": "EC50", "setting": "[2]", "value": 562, "unit": "nM"}, {"measurement": "Emax", "setting": "[2]", "value": 59.4, "unit": "%"}, {"measurement": "pathway selectivity: β-arrestin2 recruitment versus G protein signaling", "setting": "[2]", "value": "selectively activate the recruitment of β-arrestin2"}]}
{"smiles": "COc1ccc(CCN2CC[C@H]3[C@@H](C2)c2cccc4c2N3CCN4C)cc1", "note": "[Compound I-5]", "values": [{"measurement": "EC50", "setting": "[2]", "value": 684, "unit": "nM"}, {"measurement": "Emax", "setting": "[2]", "value": 3.2, "unit": "%"}]}
{"smiles": "COc1ccccc1CCN1CC[C@@H]2[C@H](C1)c1cccc3c1N2CCCN3C", "note": "(single isomer, unassigned) [Compound I-13]", "values": [{"measurement": "Ki", "setting": "[1]", "value": "< 100", "unit": "nM"}, {"measurement": "Ki", "setting": "[1]; [7]", "value": 34, "unit": "nM"}, {"measurement": "EC50", "setting": "[2]", "value": 181, "unit": "nM"}, {"measurement": "Emax", "setting": "[2]", "value": 51.4, "unit": "%"}, {"measurement": "pathway selectivity: β-arrestin2 recruitment versus G protein signaling", "setting": "[2]", "value": "selectively activate the recruitment of β-arrestin2"}]}
{"smiles": "CN1CCN2c3c(cccc31)[C@@H]1CN(Cc3ccccc3O)CC[C@@H]12", "note": "[Compound I-2]", "values": [{"measurement": "Emax", "setting": "[2]", "value": 68.4, "unit": "%"}, {"measurement": "EC50", "setting": "[2]; first value of cell, NA = no agonistic activity, read-out: Gq signaling agonistic activity (potency)", "value": 309, "unit": "nM"}, {"measurement": "EC50", "setting": "[2]; first value of cell, NA = no agonistic activity, read-out: β-arrestin2 signaling agonistic activity (potency)", "value": 229, "unit": "nM"}, {"measurement": "Gq signaling agonistic activity (percentage in parentheses)", "setting": "[2]", "value": 65.3, "unit": "%"}]}
{"smiles": "COc1ccccc1CCCN1CC[C@H]2[C@@H](C1)c1cccc3c1N2CCN3C", "note": "[Compound I-10]", "values": [{"measurement": "Ki", "setting": "[3]", "value": 1860, "unit": "nM"}, {"measurement": "Ki", "setting": "[1]", "value": "< 100", "unit": "nM"}, {"measurement": "AUC0-inf", "setting": "[4]", "value": 582, "unit": "ng·h/mL"}, {"measurement": "AUC0-t", "setting": "[4]", "value": 576, "unit": "ng·h/mL"}, {"measurement": "Cmax", "setting": "[4]", "value": "225 ng/mL and 566 ng/g"}, {"measurement": "MRT", "setting": "[4]; brain", "value": 91.8, "unit": "min"}, {"measurement": "MRT", "setting": "[4]; plasma", "value": 127, "unit": "min"}, {"measurement": "half-life", "setting": "[4]; T1/2, brain", "value": 48.1, "unit": "min"}, {"measurement": "half-life", "setting": "[4]; T1/2, plasma", "value": 63.6, "unit": "min"}, {"measurement": "Tmax", "setting": "[4]; brain", "value": 30, "unit": "min"}, {"measurement": "Tmax", "setting": "[4]; plasma", "value": 4.98, "unit": "min"}, {"measurement": "hallucinogenic effects (head-twitch response)", "setting": "[5]", "value": "did not induce hallucinogenic effects"}, {"measurement": "EC50", "setting": "[2]", "value": 204, "unit": "nM"}, {"measurement": "Emax", "setting": "[2]", "value": 12.7, "unit": "%"}, {"measurement": "AUMC0-inf", "setting": "[6]; brain", "value": 2054, "unit": "h · h · ng · g^−1"}, {"measurement": "AUMC0-t", "setting": "[6]; brain", "value": 1979, "unit": "h · h · ng · g^−1"}, {"measurement": "Kel", "setting": "[6]; brain", "value": 0.865, "unit": "h⁻¹"}, {"measurement": "AUC0-inf", "setting": "[6]; mouse, in vivo, ip, 10 mg/kg", "value": 1346, "unit": "ng·h/g"}, {"measurement": "AUC0-t", "setting": "[6]; mouse, in vivo, ip, 10 mg/kg", "value": 1335, "unit": "ng·h/g"}, {"measurement": "AUMC0-inf", "setting": "[6]; plasma", "value": 1230, "unit": "h · h · ng · mL^−1"}, {"measurement": "AUMC0-t", "setting": "[6]; plasma", "value": 1169, "unit": "h · h · ng · mL^−1"}, {"measurement": "Kel", "setting": "[6]; plasma", "value": 0.654, "unit": "h⁻¹"}]}
{"smiles": "COc1ccccc1CCCN1CC[C@H]2[C@@H](C1)c1cccc3c1N2CCCN3C", "note": "(single isomer, unassigned) [Compound I-14]", "values": [{"measurement": "Ki", "setting": "[1]", "value": "< 100", "unit": "nM"}]}
{"smiles": "CN1CCN2c3c(cccc31)[C@@H]1CN(CCc3ccccc3O)CC[C@@H]12", "note": "[Compound I-9, 2-(2-((6bR,10aS)-3-methyl-2,3,6b,9,10,10a-hexahydro-1H-pyrido[3′,4′:4,5]pyrrolo[1,2,3-de]quinoxalin-8(7H)-yl)ethyl)phenol]", "values": [{"measurement": "Ki", "setting": "[1]", "value": "< 100", "unit": "nM"}, {"measurement": "Ki", "setting": "[1]; [7]", "value": 31, "unit": "nM"}, {"measurement": "EC50", "setting": "[2]", "value": 75.9, "unit": "nM"}, {"measurement": "Emax", "setting": "[2]", "value": 14.4, "unit": "%"}]}
{"smiles": "COc1cccc(CCN2CC[C@H]3[C@@H](C2)c2cccc4c2N3CCN4C)c1", "note": "[Compound I-4]", "values": [{"measurement": "Ki", "setting": "[1]", "value": "< 100", "unit": "nM"}, {"measurement": "Emax", "setting": "[2]", "value": 44.2, "unit": "%"}, {"measurement": "Gq signaling agonistic activity (percentage in parentheses)", "setting": "[2]", "value": 13.7, "unit": "%"}]}
